{"source": "ChEMBL document CHEMBL1128290", "about": "“Opioid receptor binding requirements for the delta-selective peptide deltorphin. I: Phe3 replacement with ring-substituted and heterocyclic amino acids” (J Med Chem, 1995)", "key": {"Mu-type opioid receptor": {"biological_target": "Mu-type opioid receptor (Cavia porcellus, UniProt P97266)", "sequence (P97266 whole entry)": "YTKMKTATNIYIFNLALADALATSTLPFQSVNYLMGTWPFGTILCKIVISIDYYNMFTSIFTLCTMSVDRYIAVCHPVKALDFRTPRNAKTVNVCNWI", "test": "Inhibition of [3H]DAMGO binding to Opioid receptor mu 1 of guinea pig brain"}, "[1]": {"biological_target": "Kappa-type opioid receptor (Cavia porcellus, UniProt P41144)", "sequence (P41144 whole entry)": "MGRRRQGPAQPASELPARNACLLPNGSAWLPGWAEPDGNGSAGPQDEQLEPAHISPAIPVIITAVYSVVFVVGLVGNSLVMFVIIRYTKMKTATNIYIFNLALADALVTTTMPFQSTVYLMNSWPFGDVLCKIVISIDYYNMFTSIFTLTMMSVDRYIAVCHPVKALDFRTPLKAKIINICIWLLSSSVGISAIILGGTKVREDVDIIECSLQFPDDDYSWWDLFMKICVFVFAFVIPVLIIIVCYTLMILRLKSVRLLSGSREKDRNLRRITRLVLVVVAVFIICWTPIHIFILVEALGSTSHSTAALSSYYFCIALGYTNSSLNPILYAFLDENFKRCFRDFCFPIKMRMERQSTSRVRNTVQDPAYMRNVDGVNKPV", "test": "Inhibition of [3H]- U 69593 from Opioid receptor kappa 1 of guinea pig brain"}}, "note": "Square brackets hold non-standard residues; d marks the D form. Peptide text beside a SMILES is read from it. Ala(4-thiazolyl) = N[C@@H](Cc1cscn1)C(=O)O; 2Pal = N[C@@H](Cc1ccccn1)C(=O)O; 3Pal = N[C@@H](Cc1cccnc1)C(=O)O; 2Thi = N[C@@H](Cc1cccs1)C(=O)O"}
{"compound": "Cc1ccc(C[C@H](NC(=O)[C@H](C)NC(=O)[C@@H](N)Cc2ccc(O)cc2)C(=O)N[C@@H](CC(=O)O)C(=O)N[C@H](C(=O)N[C@H](C(=O)NCC(N)=O)C(C)C)C(C)C)cc1", "values": [{"measurement": "Ki", "setting": "Mu-type opioid receptor", "value": "> 10", "unit": "µM"}, {"measurement": "Ki", "setting": "[1]", "value": "> 10", "unit": "µM"}]}
{"compound": "CC(C)[C@H](NC(=O)[C@H](CC(=O)O)NC(=O)[C@H](Cc1c(F)c(F)c(F)c(F)c1F)NC(=O)[C@H](C)NC(=O)[C@@H](N)Cc1ccc(O)cc1)C(=O)N[C@H](C(=O)NCC(N)=O)C(C)C", "values": [{"measurement": "Ki", "setting": "Mu-type opioid receptor", "value": "> 10", "unit": "µM"}, {"measurement": "Ki", "setting": "[1]", "value": "> 10", "unit": "µM"}]}
{"compound": "CC(C)[C@H](NC(=O)[C@H](CC(=O)O)NC(=O)[C@H](Cc1ccc(F)cc1)NC(=O)[C@H](C)NC(=O)[C@@H](N)Cc1ccc(O)cc1)C(=O)N[C@H](C(=O)NCC(N)=O)C(C)C", "values": [{"measurement": "Ki", "setting": "Mu-type opioid receptor", "value": 10, "unit": "µM"}, {"measurement": "Ki", "setting": "[1]", "value": "> 10", "unit": "µM"}]}
{"compound": "CC(C)[C@H](NC(=O)[C@H](CC(=O)O)NC(=O)[C@H](Cc1ccccn1)NC(=O)[C@H](C)NC(=O)[C@@H](N)Cc1ccc(O)cc1)C(=O)N[C@H](C(=O)NCC(N)=O)C(C)C", "note": "(H-YA[2Pal]DVVG-NH2)", "values": [{"measurement": "Ki", "setting": "Mu-type opioid receptor", "value": 2.93, "unit": "µM"}, {"measurement": "Ki", "setting": "[1]", "value": "> 10", "unit": "µM"}]}
{"compound": "CC(C)[C@H](NC(=O)[C@H](CC(=O)O)NC(=O)[C@H](Cc1cccs1)NC(=O)[C@H](C)NC(=O)[C@@H](N)Cc1ccc(O)cc1)C(=O)N[C@H](C(=O)NCC(N)=O)C(C)C", "note": "(H-YA[2Thi]DVVG-NH2)", "values": [{"measurement": "Ki", "setting": "Mu-type opioid receptor", "value": 0.419, "unit": "µM"}, {"measurement": "Ki", "setting": "[1]", "value": "> 10", "unit": "µM"}]}
{"compound": "CC(C)[C@H](NC(=O)[C@H](CC(=O)O)NC(=O)[C@H](Cc1cccnc1)NC(=O)[C@H](C)NC(=O)[C@@H](N)Cc1ccc(O)cc1)C(=O)N[C@H](C(=O)NCC(N)=O)C(C)C", "note": "(H-YA[3Pal]DVVG-NH2)", "values": [{"measurement": "Ki", "setting": "Mu-type opioid receptor", "value": 10, "unit": "µM"}, {"measurement": "Ki", "setting": "[1]", "value": "> 10", "unit": "µM"}]}
{"compound": "CC(C)[C@H](NC(=O)[C@H](CC(=O)O)NC(=O)[C@H](Cc1cscn1)NC(=O)[C@H](C)NC(=O)[C@@H](N)Cc1ccc(O)cc1)C(=O)N[C@H](C(=O)NCC(N)=O)C(C)C", "note": "(H-YA[Ala(4-thiazolyl)]DVVG-NH2)", "values": [{"measurement": "Ki", "setting": "Mu-type opioid receptor", "value": 2.8, "unit": "µM"}, {"measurement": "Ki", "setting": "[1]", "value": "> 10", "unit": "µM"}]}
{"compound": "CC(NC(=O)[C@@H](N)Cc1ccc(O)cc1)C(=O)N[C@@H](Cc1ccccc1)C(=O)N[C@@H](CC(=O)O)C(=O)N[C@H](C(=O)N[C@H](C(=O)NCC(N)=O)C(C)C)C(C)C", "note": "(single isomer, unassigned) [DELTORPHIN C]", "values": [{"measurement": "Ki", "setting": "Mu-type opioid receptor", "value": 0.677, "unit": "µM"}, {"measurement": "Ki", "setting": "[1]", "value": "> 10", "unit": "µM"}]}
{"compound": "CC(C)[C@H](NC(=O)[C@H](CC(=O)O)NC(=O)[C@H](Cc1cccc(F)c1)NC(=O)[C@H](C)NC(=O)[C@@H](N)Cc1ccc(O)cc1)C(=O)N[C@H](C(=O)NCC(N)=O)C(C)C", "note": "(stereo in doubt; 2a)", "values": [{"measurement": "Ki", "setting": "Mu-type opioid receptor", "value": 0.411, "unit": "µM"}, {"measurement": "Ki", "setting": "[1]", "value": "> 10", "unit": "µM"}]}
{"compound": "CC(C)[C@H](NC(=O)[C@H](CC(=O)O)NC(=O)[C@H](Cc1cccc(F)c1)NC(=O)[C@H](C)NC(=O)[C@@H](N)Cc1ccc(O)cc1)C(=O)N[C@H](C(=O)NCC(N)=O)C(C)C", "note": "(stereo in doubt; 2b)", "values": [{"measurement": "Ki", "setting": "Mu-type opioid receptor", "value": 3.48, "unit": "µM"}, {"measurement": "Ki", "setting": "[1]", "value": "> 10", "unit": "µM"}]}
{"compound": "Cc1c(C)c(C)c(C[C@H](NC(=O)[C@H](C)NC(=O)[C@@H](N)Cc2ccc(O)cc2)C(=O)N[C@@H](CC(=O)O)C(=O)N[C@H](C(=O)N[C@H](C(=O)NCC(N)=O)C(C)C)C(C)C)c(C)c1C", "note": "(stereo in doubt; 5a)", "values": [{"measurement": "Ki", "setting": "Mu-type opioid receptor", "value": "> 10", "unit": "µM"}, {"measurement": "Ki", "setting": "[1]", "value": "> 10", "unit": "µM"}]}
{"compound": "Cc1c(C)c(C)c(C[C@H](NC(=O)[C@H](C)NC(=O)[C@@H](N)Cc2ccc(O)cc2)C(=O)N[C@@H](CC(=O)O)C(=O)N[C@H](C(=O)N[C@H](C(=O)NCC(N)=O)C(C)C)C(C)C)c(C)c1C", "note": "(stereo in doubt; 5b)", "values": [{"measurement": "Ki", "setting": "Mu-type opioid receptor", "value": "> 10", "unit": "µM"}, {"measurement": "Ki", "setting": "[1]", "value": "> 10", "unit": "µM"}]}
{"compound": "H-YAHDVVG-NH2", "values": [{"measurement": "Ki", "setting": "Mu-type opioid receptor", "value": "> 10", "unit": "µM"}, {"measurement": "Ki", "setting": "[1]", "value": "> 10", "unit": "µM"}]}
